Experimental data from ChEMBL document CHEMBL5653631, “A Potent and Selective ULK1 Inhibitor Suppresses Autophagy and Sensitizes Cancer Cells to Nutrient Stress” (iScience, 2018).

Legend:
[1] = target: T1, Serine/threonine-protein kinase tousled-like 1 (Homo sapiens) (UniProt Q9UKI8); assay: Inhibition of human recombinant TLK1 at 40 nM related to control ULK1
T1 sequence (whole entry): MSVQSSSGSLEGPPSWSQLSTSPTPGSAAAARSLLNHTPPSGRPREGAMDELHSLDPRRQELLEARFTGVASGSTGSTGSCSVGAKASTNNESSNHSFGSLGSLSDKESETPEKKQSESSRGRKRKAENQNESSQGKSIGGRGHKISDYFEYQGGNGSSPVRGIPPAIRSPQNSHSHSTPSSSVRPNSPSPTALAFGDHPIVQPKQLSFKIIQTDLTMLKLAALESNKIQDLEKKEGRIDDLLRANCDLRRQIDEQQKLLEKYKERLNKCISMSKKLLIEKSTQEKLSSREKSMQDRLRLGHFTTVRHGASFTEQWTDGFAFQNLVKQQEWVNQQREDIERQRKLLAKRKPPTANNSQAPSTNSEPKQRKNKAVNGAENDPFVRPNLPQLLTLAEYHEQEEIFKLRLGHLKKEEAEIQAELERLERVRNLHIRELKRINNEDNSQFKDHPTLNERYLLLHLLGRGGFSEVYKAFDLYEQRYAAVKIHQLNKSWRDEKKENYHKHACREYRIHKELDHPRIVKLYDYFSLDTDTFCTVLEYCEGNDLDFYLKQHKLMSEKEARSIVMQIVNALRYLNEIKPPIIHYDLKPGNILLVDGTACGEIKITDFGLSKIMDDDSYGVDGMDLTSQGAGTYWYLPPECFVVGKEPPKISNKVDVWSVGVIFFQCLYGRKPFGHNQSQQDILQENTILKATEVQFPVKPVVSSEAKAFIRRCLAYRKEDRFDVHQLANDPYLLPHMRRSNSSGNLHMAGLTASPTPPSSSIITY

[2] = target: T2, Serine/threonine-protein kinase 17A (Homo sapiens) (UniProt Q9UEE5); assay: Inhibition of human recombinant DRAK1 at 40 nM in presence of ATP by radiometric assay relative to control
T2 sequence (whole entry): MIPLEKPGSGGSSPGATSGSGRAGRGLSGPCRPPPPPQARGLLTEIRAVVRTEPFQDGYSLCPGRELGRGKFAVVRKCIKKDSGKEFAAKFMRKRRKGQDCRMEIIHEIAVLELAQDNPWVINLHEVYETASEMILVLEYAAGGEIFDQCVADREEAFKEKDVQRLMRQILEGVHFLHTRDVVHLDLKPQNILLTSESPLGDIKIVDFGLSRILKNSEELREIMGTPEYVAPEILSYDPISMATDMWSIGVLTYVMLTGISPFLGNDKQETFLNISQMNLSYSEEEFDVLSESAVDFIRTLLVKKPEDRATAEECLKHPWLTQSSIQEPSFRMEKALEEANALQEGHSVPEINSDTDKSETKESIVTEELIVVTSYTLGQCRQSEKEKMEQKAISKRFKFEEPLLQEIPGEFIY

[3] = target: T3, Cytoplasmic tyrosine-protein kinase BMX (Homo sapiens) (UniProt P51813); assay: Inhibition of human recombinant BMX at 15 nM related to control ULK1
T3 sequence (whole entry): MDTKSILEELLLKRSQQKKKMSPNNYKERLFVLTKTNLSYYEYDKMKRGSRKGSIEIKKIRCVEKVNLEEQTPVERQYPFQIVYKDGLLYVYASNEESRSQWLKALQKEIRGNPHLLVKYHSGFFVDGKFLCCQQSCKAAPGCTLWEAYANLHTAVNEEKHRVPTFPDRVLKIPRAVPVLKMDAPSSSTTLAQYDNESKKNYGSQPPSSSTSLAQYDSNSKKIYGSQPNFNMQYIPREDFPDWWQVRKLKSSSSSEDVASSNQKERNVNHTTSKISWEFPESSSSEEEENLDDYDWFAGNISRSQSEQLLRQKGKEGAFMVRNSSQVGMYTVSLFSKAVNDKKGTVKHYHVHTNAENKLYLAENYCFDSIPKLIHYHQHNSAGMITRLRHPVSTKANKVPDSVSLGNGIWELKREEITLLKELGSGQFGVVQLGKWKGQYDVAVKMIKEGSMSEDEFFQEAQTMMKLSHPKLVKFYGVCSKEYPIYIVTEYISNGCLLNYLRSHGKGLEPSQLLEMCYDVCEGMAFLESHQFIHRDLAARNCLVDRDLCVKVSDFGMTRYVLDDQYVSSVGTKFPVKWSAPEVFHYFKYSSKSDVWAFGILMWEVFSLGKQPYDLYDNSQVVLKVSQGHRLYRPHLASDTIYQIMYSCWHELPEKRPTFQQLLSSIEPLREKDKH

[4] = target: Epidermal growth factor receptor (Homo sapiens) (UniProt P00533); assay: Inhibition of human recombinant EGFR at 15 nM in presence of ATP by radiometric assay relative to control
Sequence of Epidermal growth factor receptor (Homo sapiens) (P00533 whole entry): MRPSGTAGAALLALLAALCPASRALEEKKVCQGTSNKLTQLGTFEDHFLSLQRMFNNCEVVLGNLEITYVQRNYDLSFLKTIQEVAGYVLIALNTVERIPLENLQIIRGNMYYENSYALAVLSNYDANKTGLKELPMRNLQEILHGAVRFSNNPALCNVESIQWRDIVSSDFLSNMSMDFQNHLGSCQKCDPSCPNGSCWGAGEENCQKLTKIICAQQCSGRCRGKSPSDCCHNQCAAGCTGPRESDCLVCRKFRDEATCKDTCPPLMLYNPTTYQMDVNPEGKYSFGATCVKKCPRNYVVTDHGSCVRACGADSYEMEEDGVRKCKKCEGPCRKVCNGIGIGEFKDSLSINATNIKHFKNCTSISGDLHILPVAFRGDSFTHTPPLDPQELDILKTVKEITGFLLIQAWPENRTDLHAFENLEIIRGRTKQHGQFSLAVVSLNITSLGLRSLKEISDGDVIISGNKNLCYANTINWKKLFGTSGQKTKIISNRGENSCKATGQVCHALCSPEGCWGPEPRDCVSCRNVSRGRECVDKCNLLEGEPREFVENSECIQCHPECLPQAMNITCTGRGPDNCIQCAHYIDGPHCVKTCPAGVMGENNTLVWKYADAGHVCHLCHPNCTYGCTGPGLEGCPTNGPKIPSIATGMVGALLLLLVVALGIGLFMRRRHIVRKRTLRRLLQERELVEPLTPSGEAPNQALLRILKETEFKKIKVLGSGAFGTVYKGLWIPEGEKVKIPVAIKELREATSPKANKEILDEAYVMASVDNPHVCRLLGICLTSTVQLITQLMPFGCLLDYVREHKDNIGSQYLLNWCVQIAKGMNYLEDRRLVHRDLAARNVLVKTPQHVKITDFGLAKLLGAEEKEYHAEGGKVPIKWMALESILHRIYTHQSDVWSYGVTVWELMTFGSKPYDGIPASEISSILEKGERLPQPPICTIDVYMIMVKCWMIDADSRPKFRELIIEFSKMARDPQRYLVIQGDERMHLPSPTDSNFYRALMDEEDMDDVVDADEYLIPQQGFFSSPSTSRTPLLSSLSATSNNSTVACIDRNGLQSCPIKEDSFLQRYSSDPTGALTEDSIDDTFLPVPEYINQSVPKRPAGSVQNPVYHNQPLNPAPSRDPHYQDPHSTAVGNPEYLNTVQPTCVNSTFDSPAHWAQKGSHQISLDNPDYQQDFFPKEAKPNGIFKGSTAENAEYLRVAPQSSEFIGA

[5] = target: Tyrosine-protein kinase JAK2 (Homo sapiens) (UniProt O60674); assay: Inhibition of human recombinant JAK2 at 15 nM in presence of ATP by radiometric assay relative to control
Sequence of Tyrosine-protein kinase JAK2 (Homo sapiens) (O60674 whole entry): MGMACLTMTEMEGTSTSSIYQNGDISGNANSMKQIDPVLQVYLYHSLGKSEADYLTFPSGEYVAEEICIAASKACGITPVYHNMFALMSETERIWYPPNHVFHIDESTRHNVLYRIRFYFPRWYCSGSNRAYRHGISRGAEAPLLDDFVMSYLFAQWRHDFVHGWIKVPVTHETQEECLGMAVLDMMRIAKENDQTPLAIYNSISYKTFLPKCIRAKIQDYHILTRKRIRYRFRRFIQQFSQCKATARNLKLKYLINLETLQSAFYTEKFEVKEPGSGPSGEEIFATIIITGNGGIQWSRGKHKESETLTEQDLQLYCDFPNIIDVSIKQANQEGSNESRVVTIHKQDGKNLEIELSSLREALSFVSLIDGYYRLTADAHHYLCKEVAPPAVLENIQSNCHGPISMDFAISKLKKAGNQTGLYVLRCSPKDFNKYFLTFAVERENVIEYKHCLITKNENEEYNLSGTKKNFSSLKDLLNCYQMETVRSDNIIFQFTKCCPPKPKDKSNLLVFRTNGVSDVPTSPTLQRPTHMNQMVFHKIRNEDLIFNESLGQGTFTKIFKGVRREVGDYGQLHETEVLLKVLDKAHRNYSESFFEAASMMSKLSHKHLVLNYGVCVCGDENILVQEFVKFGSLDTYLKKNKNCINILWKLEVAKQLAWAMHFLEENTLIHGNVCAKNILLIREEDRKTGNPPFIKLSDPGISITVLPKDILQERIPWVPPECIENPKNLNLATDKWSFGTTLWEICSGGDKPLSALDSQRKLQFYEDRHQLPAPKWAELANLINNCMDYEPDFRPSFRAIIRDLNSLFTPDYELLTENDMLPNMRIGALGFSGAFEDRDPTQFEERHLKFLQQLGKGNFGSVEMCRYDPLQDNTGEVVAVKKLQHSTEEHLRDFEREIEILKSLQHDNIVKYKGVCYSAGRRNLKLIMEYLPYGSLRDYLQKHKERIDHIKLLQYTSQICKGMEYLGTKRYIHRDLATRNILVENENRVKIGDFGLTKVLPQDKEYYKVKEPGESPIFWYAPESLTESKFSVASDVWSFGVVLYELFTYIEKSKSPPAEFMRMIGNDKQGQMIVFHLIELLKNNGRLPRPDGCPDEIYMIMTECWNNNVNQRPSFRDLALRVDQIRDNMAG

[6] = target: Serine/threonine-protein kinase PAK 2 (Homo sapiens) (UniProt Q13177); assay: Inhibition of human recombinant PAK2 at 15 nM in presence of ATP by radiometric assay relative to control
Sequence of Serine/threonine-protein kinase PAK 2 (Homo sapiens) (Q13177 whole entry, canonical isoform): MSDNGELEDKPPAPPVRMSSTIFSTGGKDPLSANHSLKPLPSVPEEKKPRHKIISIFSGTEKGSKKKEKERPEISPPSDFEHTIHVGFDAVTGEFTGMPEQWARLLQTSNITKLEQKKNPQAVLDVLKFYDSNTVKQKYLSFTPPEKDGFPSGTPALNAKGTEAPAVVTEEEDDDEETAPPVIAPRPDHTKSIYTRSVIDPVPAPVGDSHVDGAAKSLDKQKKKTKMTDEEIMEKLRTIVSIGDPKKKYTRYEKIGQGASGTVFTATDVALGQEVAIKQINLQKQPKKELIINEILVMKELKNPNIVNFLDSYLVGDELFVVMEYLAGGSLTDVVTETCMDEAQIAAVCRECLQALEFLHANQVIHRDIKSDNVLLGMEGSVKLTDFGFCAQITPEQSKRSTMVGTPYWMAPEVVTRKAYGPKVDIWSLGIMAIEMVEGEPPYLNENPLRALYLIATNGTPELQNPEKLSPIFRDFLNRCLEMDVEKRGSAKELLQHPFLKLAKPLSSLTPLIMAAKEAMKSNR

[7] = target: T4, Phosphorylase b kinase gamma catalytic chain, liver/testis isoform (Homo sapiens) (UniProt P15735); assay: Inhibition of human recombinant PHKg2 at 500 nM in presence of ATP by radiometric assay relative to control
T4 sequence (whole entry): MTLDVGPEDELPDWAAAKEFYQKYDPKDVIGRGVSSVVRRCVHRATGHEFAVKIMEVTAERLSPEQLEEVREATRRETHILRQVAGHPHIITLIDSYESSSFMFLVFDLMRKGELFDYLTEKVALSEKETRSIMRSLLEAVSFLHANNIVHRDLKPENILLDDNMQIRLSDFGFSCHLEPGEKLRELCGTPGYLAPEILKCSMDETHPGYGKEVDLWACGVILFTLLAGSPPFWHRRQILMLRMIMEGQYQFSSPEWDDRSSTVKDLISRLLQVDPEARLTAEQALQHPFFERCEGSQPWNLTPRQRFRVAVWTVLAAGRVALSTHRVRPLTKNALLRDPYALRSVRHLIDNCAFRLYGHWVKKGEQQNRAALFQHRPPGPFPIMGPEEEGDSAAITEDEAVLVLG

Molecule `O=C(N[C@@H](C1CC1)C(F)(F)F)c1cc(-c2cnn3cc(-c4ccc(F)cc4)cnc23)cs1` has a fold change (FC) [1] of 0 and an inhibition [2] of 78%.
`CC(C)[C@H](NC(=O)c1cc(-c2cnn3cc(-c4ccc(OCCN5CCCCC5)cc4)cnc23)cs1)C(F)(F)F` gave a fold change (FC) [3] of 0.07, an inhibition [4] of 3% and an inhibition [5] of 6%. It also gave an inhibition [6] of 0%.
`CNC(=O)c1ccccc1Oc1nc(Nc2cc(OC)c(OC)c(OC)c2)ncc1Br` gave an inhibition [7] of 0%.
